In US9409905B2, “Antibacterial compounds and methods for use” (PTC THERAPEUTICS, INC., priority 2011, dated 2016):
Converted amounts (≈) assume the structure as drawn.

How the values were obtained:
[1] = test system: Escherichia coli (E. coli) BAS849; assay: Antibacterial activity, microbroth dilution MIC (Table 1); type: cell-based; settings: microbroth dilution, super sensitive Gram-negative E. coli BAS849, read-out: MIC, BAS849
Procedure, shortened: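 Broth microdilution against S. aureus 29213, E. coli 25922 and hypersensitive E. coli BAS849. MIC in μg/mL is the lowest drug concentration preventing macroscopically visible growth under test conditions.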

[2] = test system: Staphylococcus aureus (S. aureus) 29213; assay: as above; type: cell-based; settings: microbroth dilution, Gram-positive S. aureus 29213, read-out: MIC, 29213
Procedure, shortened: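 Each strain is exposed to test compound in a microbroth dilution series; visible growth is scored macroscopically, and the lowest growth-free concentration is recorded as MIC in μg/mL.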

E. coli 25922 = assay: as above; type: cell-based, Escherichia coli; settings: Escherichia coli; microbroth dilution; control Gram-negative E. coli 25922 strain; read-out: MIC, 25922
Procedure, shortened: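 In a microbroth dilution test, the minimum inhibitory concentration was defined as the lowest compound level preventing growth seen by eye, and was given in μg/mL.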

E. coli LZ3111 = assay: Antibacterial activity, MIC, quinolone resistant strain (Table 2); type: cell-based; settings: Escherichia coli, LZ3111, read-out: MIC LZ3111
Procedure, shortened: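 Microbroth dilution method; MIC (μg/mL) is the lowest drug concentration preventing macroscopically visible growth under test conditions.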

[3] = test system: Acinetobacter baumannii (A. baumannii) BAA747; assay: Antibacterial activity, MIC (Table 4); type: cell-based; settings: A. baumannii BAA747, read-out: MIC, BAA747
Procedure, shortened: (§1)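 MIC (μg/mL) by microbroth dilution, taken as the lowest drug concentration preventing macroscopically visible growth. MXX strains are multi-drug resistant clinical isolates.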

[4] = test system: Klebsiella pneumoniae (K. pneumoniae) 35657; assay: Antibacterial activity, MIC (Table 4); type: cell-based; settings: K. pneumoniae 35657, read-out: MIC, 35657
Procedure, shortened: as §1

A. baumannii MXX2240 = assay: Antibacterial activity, MIC, resistant strain (Table 4); type: cell-based; settings: Acinetobacter baumannii, MXX2240; resistant A. baumannii MMX2240, multi-drug resistant clinical isolate; read-out: MIC, MMX2240
Procedure, shortened: as §1

K. pneumoniae MXX1232 = assay: as above; type: cell-based; settings: Klebsiella pneumoniae, MXX1232; resistant K. pneumoniae MMX1232, multi-drug resistant clinical isolate; read-out: MIC, MMX1232
Procedure, shortened: as §1

[5] = test system: Pseudomonas aeruginosa (P. aeruginosa) 27853; assay: Antibacterial activity, MIC (Table 5); type: cell-based; settings: P. aeruginosa 27853, read-out: MIC, 27853
Procedure, shortened: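 Activity was measured by microbroth dilution. The MIC, in μg/mL, is the lowest drug concentration that prevents macroscopically visible growth under the test conditions.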

Row | SMILES | MIC [1] | MIC [2] | MIC (E. coli 25922) | MIC (E. coli LZ3111) | MIC [3] | MIC [4] | MIC (A. baumannii MXX2240) | MIC (K. pneumoniae MXX1232) | MIC [5]
1 | CCc1c(-c2ccc3nn(C)cc3c2)[nH]c(=O)c(C(=O)O)c1O [Cpd 393, 5-ethyl-4-hydroxy-6-(2-methyl-2H-indazol-5-yl)-2-oxo-1,2-dihydropyridine-3-carboxylic acid] | < 1 µg/mL | 12.5 to 150 µg/mL (≈ 39.9 to 479 µM) | 3.5 to 12.5 µg/mL (≈ 11.2 to 39.9 µM) | 3.5 to 12.5 µg/mL (≈ 11.2 to 39.9 µM) | 3.5 to 12.5 µg/mL (≈ 11.2 to 39.9 µM) | 12.5 to 150 µg/mL (≈ 39.9 to 479 µM) | 3.5 to 12.5 µg/mL (≈ 11.2 to 39.9 µM) | 12.5 to 150 µg/mL (≈ 39.9 to 479 µM) | 12.5 to 150 µg/mL (≈ 39.9 to 479 µM)
2 | Cc1c(-c2ccc3c(cnn3C)c2)[nH]c(=O)c(C(=O)O)c1O [Cpd 394, 4-hydroxy-5-methyl-6-(1-methyl-1H-indazol-5-yl)-2-oxo-1,2-dihydropyridine-3-carboxylic acid] | 3.5 to 12.5 µg/mL (≈ 11.7 to 41.8 µM) | 12.5 to 150 µg/mL (≈ 41.8 to 501 µM) | 12.5 to 150 µg/mL (≈ 41.8 to 501 µM) | < 1 µg/mL | 12.5 to 150 µg/mL (≈ 41.8 to 501 µM) | 12.5 to 150 µg/mL (≈ 41.8 to 501 µM) | < 1 µg/mL | 12.5 to 150 µg/mL (≈ 41.8 to 501 µM) | 12.5 to 150 µg/mL (≈ 41.8 to 501 µM)
3 | Cc1c(-c2ccc3nn(C)cc3c2)[nH]c(=O)c(C(=O)O)c1O [Cpd 395, 4-hydroxy-5-methyl-6-(2-methyl-2H-indazol-5-yl)-2-oxo-1,2-dihydropyridine-3-carboxylic acid] | 12.5 to 150 µg/mL (≈ 41.8 to 501 µM) | 3.5 to 12.5 µg/mL (≈ 11.7 to 41.8 µM) | 12.5 to 150 µg/mL (≈ 41.8 to 501 µM) | 1 to 3.5 µg/mL (≈ 3.34 to 11.7 µM) | 12.5 to 150 µg/mL (≈ 41.8 to 501 µM) | 12.5 to 150 µg/mL (≈ 41.8 to 501 µM) | 3.5 to 12.5 µg/mL (≈ 11.7 to 41.8 µM) | 12.5 to 150 µg/mL (≈ 41.8 to 501 µM) | 12.5 to 150 µg/mL (≈ 41.8 to 501 µM)
4 | Cc1c(-c2ccc3cnn(C)c3c2)[nH]c(=O)c(C(=O)O)c1O [Cpd 396, 4-hydroxy-5-methyl-6-(1-methyl-1H-indazol-6-yl)-2-oxo-1,2-dihydropyridine-3-carboxylic acid] | 12.5 to 150 µg/mL (≈ 41.8 to 501 µM) | 12.5 to 150 µg/mL (≈ 41.8 to 501 µM) | 12.5 to 150 µg/mL (≈ 41.8 to 501 µM) | 1 to 3.5 µg/mL (≈ 3.34 to 11.7 µM) | 12.5 to 150 µg/mL (≈ 41.8 to 501 µM) | 12.5 to 150 µg/mL (≈ 41.8 to 501 µM) | 3.5 to 12.5 µg/mL (≈ 11.7 to 41.8 µM) | 12.5 to 150 µg/mL (≈ 41.8 to 501 µM) | 12.5 to 150 µg/mL (≈ 41.8 to 501 µM)
5 | Cc1c(-c2ccc3cn(C)nc3c2)[nH]c(=O)c(C(=O)O)c1O [Cpd 397, 4-hydroxy-5-methyl-6-(2-methyl-2H-indazol-6-yl)-2-oxo-1,2-dihydropyridine-3-carboxylic acid] | 12.5 to 150 µg/mL (≈ 41.8 to 501 µM) | 12.5 to 150 µg/mL (≈ 41.8 to 501 µM) | 12.5 to 150 µg/mL (≈ 41.8 to 501 µM) | 1 to 3.5 µg/mL (≈ 3.34 to 11.7 µM) | 12.5 to 150 µg/mL (≈ 41.8 to 501 µM) | 12.5 to 150 µg/mL (≈ 41.8 to 501 µM) | 3.5 to 12.5 µg/mL (≈ 11.7 to 41.8 µM) | 12.5 to 150 µg/mL (≈ 41.8 to 501 µM) | 12.5 to 150 µg/mL (≈ 41.8 to 501 µM)
6 | Cc1c(-c2ccc3[nH]ncc3c2)[nH]c(=O)c(C(=O)O)c1O [Cpd 398, 4-hydroxy-6-(1H-indazol-5-yl)-5-methyl-2-oxo-1,2-dihydropyridine-3-carboxylic acid] | 12.5 to 150 µg/mL (≈ 43.8 to 526 µM) | 12.5 to 150 µg/mL (≈ 43.8 to 526 µM) | 12.5 to 150 µg/mL (≈ 43.8 to 526 µM) | 3.5 to 12.5 µg/mL (≈ 12.3 to 43.8 µM) | 12.5 to 150 µg/mL (≈ 43.8 to 526 µM) | 12.5 to 150 µg/mL (≈ 43.8 to 526 µM) | 12.5 to 150 µg/mL (≈ 43.8 to 526 µM) | 12.5 to 150 µg/mL (≈ 43.8 to 526 µM) | 12.5 to 150 µg/mL (≈ 43.8 to 526 µM)
7 | Cc1c(-c2ccc3cn[nH]c3c2)[nH]c(=O)c(C(=O)O)c1O [Cpd 399, 4-hydroxy-6-(1H-indazol-6-yl)-5-methyl-2-oxo-1,2-dihydropyridine-3-carboxylic acid] | 12.5 to 150 µg/mL (≈ 43.8 to 526 µM) | 12.5 to 150 µg/mL (≈ 43.8 to 526 µM) | 12.5 to 150 µg/mL (≈ 43.8 to 526 µM) | 12.5 to 150 µg/mL (≈ 43.8 to 526 µM) | 12.5 to 150 µg/mL (≈ 43.8 to 526 µM) | 12.5 to 150 µg/mL (≈ 43.8 to 526 µM) | 12.5 to 150 µg/mL (≈ 43.8 to 526 µM) | 12.5 to 150 µg/mL (≈ 43.8 to 526 µM) | 12.5 to 150 µg/mL (≈ 43.8 to 526 µM)
8 | CCc1c(-c2cn3ccccc3n2)[nH]c(=O)c(C(=O)O)c1O [Cpd 400, 5-ethyl-4-hydroxy-6-(imidazo[1,2-a]pyridin-2-yl)-2-oxo-1,2-dihydropyridine-3-carboxylic acid] | 1 to 3.5 µg/mL (≈ 3.34 to 11.7 µM) | 12.5 to 150 µg/mL (≈ 41.8 to 501 µM) | 12.5 to 150 µg/mL (≈ 41.8 to 501 µM) | 12.5 to 150 µg/mL (≈ 41.8 to 501 µM) | 12.5 to 150 µg/mL (≈ 41.8 to 501 µM) | 12.5 to 150 µg/mL (≈ 41.8 to 501 µM) | 12.5 to 150 µg/mL (≈ 41.8 to 501 µM) | 12.5 to 150 µg/mL (≈ 41.8 to 501 µM) | 12.5 to 150 µg/mL (≈ 41.8 to 501 µM)
9 | CCc1c(-c2cc3c(N(C)C)nc(C)cn3n2)[nH]c(=O)c(C(=O)O)c1O [Cpd 401, 6-(4-(dimethylamino)-6-methylpyrazolo[1,5-a]pyrazin-2-yl)-5-ethyl-4-hydroxy-2-oxo-1,2-dihydropyridine-3-carboxylic acid] | 3.5 to 12.5 µg/mL (≈ 9.79 to 35 µM) | 3.5 to 12.5 µg/mL (≈ 9.79 to 35 µM) | 12.5 to 150 µg/mL (≈ 35 to 420 µM) | 12.5 to 150 µg/mL (≈ 35 to 420 µM) | 12.5 to 150 µg/mL (≈ 35 to 420 µM) | 12.5 to 150 µg/mL (≈ 35 to 420 µM) | 12.5 to 150 µg/mL (≈ 35 to 420 µM) | 12.5 to 150 µg/mL (≈ 35 to 420 µM) | 12.5 to 150 µg/mL (≈ 35 to 420 µM)
